Data: BindingDB's records for doi:10.1021/jm000022w (Cor Therapeutics, 2000)
Blank lines part the entries; values can stand above or below the compound they belong to. Positions of bridges follow the written chain, without caps; N, C: chain ends. Non-standard residues stand in square brackets, D forms with d. Residues, ends and D or L forms follow the SMILES beside them. Phe(4-CH2NH2) = NCc1ccc(C[C@H](N)C(=O)O)cc1; Thz(5,5-Me2) = CC1(C)SCN[C@@H]1C(=O)O; NMeR = CN[C@@H](CCCNC(=N)N)C(=O)O

How the values were obtained:
[1] = Inhibition of human gel filtered platelet aggregation mediated by 10 uM ADP
[2] = Inhibition of alpha IIb beta-3 integrin mediated platelet aggregation
[3] = as above; remark: listed apart in the source
[4] = Inhibition of human platelet aggregation in platelet rich plasma (PRP)
[5] = Inhibition of ADP-induced platelet aggregation
[6] = Inhibition of ADP-induced platelet aggregation; remark: listed apart in the source
[7] = inhibition of platelet aggregation in human platelet rich plasma
[8] = Inhibition of human platelet aggregation
[9] = Inhibition of canine platelet aggregation
[10] = Inhibition of human platelet aggregation in platelet rich plasma
[11] = Inhibition of collagen-induced platelet aggregation
[12] = Inhibition of human gel filtered platelet aggregation induced by ADP

- IC50 [1]: 26 nM
SMILES: CC(=O)N[C@H]1CSSC[C@@H](C(=O)O)NC(=O)[C@H](CC(=O)O)NC(=O)CNC(=O)[C@H](Cc2ccc(CN)cc2)NC(=O)[C@H]2N(CSC2(C)C)C(=O)[C@H](CC(N)=O)NC1=O [8-Acetylamino-22-(4-aminomethyl-benzyl)-5-carbamoylmethyl-16-carboxymethyl-1,1-dimethyl-4,7,15,18,21,24-hexaoxo-icosahydro-2,10,11-trithia-3a,6,14,17,20,23-hexaaza-cyclopentacyclotricosene-13-carboxylic acid (MK-0852)] (Ac-CN[Thz(5,5-Me2)][Phe(4-CH2NH2)]GDC-OH; disulfide 1-7)

- IC50 [2]: 45 nM
SMILES: CCOC(=O)CC1CCN(C(=O)C(C)(C)[C@@H](CC)NC(=O)c2ccc(C(=N)N3CCSC3)cc2F)CC1 [(1-{3-[2-Fluoro-4-(imino-thiazolidin-3-yl-methyl)-benzoylamino]-2,2-dimethyl-pentanoyl}-piperidin-4-yl)-acetic acid ethyl ester(NSL-96184)]

- IC50 [3]: 23 nM
SMILES: C[C@H](CC(=O)O)NC(=O)CN1CCC[C@@H](CCC2CCNCC2)C1=O [3-{2-[2-Oxo-3-(2-piperidin-4-yl-ethyl)-piperidin-1-yl]-acetylamino}-butyric acid (L-734217)]

- IC50 [4]: 94 nM
SMILES: O=C(CCCC1CCNCC1)NCC(=O)N[C@H](CCc1c[nH]c2ccccc12)C(=O)O [L-703014]

SMILES: N=C(N)c1ccc(C(=O)Nc2ccc3c(c2)C(=O)N(CCC(=O)O)Cc2nnnn2-3)cc1 [3-[8-(4-Carbamimidoyl-benzoylamino)-6-oxo-4H,6H-1,2,3,5,10b-pentaaza-benzo[e]azulen-5-yl]-propionic acid(G7453)]
- IC50 [5]: 54 nM

SMILES: CCCCOC(=O)N[C@@H](CNC(=O)C1CC(OCc2ccc(C(=N)N)cc2)=NO1)C(=O)OC (some centres not stated) [2-Butoxycarbonylamino-3-{[3-(4-carbamimidoyl-benzyloxy)-4,5-dihydro-isoxazole-5-carbonyl]-amino}-propionic acid methyl ester(XU 065)]
- IC50 [6]: 50 nM

- IC50 [7]: 38 nM
SMILES: CCOC(=O)COC1CCN(C(=O)[C@H](C)NC(=O)c2ccc(C(=N)NO)cc2)CC1 [((S)-1-{2-[4-(N-Hydroxycarbamimidoyl)-benzoylamino]-propionyl}-piperidin-4-yloxy)-acetic acid ethyl ester]

- IC50 [8]: 230 nM
- IC50 [9]: 90 nM
SMILES: CC(=O)N[C@H]1CSSC[C@@H](C(N)=O)NC(=O)[C@H](CC(=O)O)NC(=O)CNC(=O)[C@H](CCCNC(=N)N)N(C)C1=O [[16-Acetylamino-4-carbamoyl-13-(3-guanidino-propyl)-14-methyl-6,9,12,15-tetraoxo-1,2-dithia-5,8,11,14-tetraaza-cycloheptadec-7-yl]-acetic acid (SK&F 106760)] (Ac-C[NMeR]GDC-NH2; disulfide 1-5)

- IC50 [10]: 3.5 nM
SMILES: O=C(NC[C@H](NS(=O)(=O)c1ccccc1)C(=O)O)c1cnc(N2CCN(C3CCNCC3)CC2)s1 [2-Benzenesulfonylamino-3-{[2-(4-piperidin-4-yl-piperazin-1-yl)-thiazole-5-carbonyl]-amino}-propionic acid (UR-12947)]

- IC50 [11]: 130 nM
- IC50 [12]: 80 nM
SMILES: CCOC(=O)CCNC(=O)N[C@H]1CCN(c2ccc(C(=N)N)cc2)C1=O [SC-57099B]
